Consider two molecules from patent US20200289527A1, “FORMULATION CONTAINING A-DECARBONIZED-5a ANDROSTANE COMPOUND FOR INCREASING WHITE BLOOD CELL AND USE THEREOF” (priority 2017, published 2020).

Series [1] deals with white blood cells in mice bearing Lewis lung tumor. An excerpt:
The vigorously growing tumor cells were taken and prepared into cell suspension with a concentration of about 5-10×10^6/ml by homogenization under sterile condition.
At the beginning of the experiment, 10 mice were randomly sampled for blood collection by posterior orbital venous plexus puncture, and an automatic blood cell analyzer (HEMAVET-950) was used to conduct the routine blood test. Then the blood was collected for the routine blood test by the same method on the 8th and 12th days after the last administration of cyclophosphamide.

Series [2] concerns white blood cells in tumor patients. The note with it: for Effect of increasing WBC (C1/Czs): all 10 subjects, 15-45 mg total daily dose, Day 0 = 100%; for average extent of increasing white blood cells: average of subjects. The method, then:
Blood was collected on the day before the administration, and the routine blood test was conducted to determine the number of white blood cells (Czs) before the subjects were treated with the medicine of the present invention.
10 subjects took ACP at different administrated frequency and dose every day (see Table 2). Blood was collected from 10 subjects at Day 8, 15, 22, and 28 for routine blood test.

Setting [3] is: subject GBYI, Day 0 count 4.3, once a day, total daily dose 15 mg.
Where [4] appears, read: subject LXJV, Day 0 count 2.7, three times a day, total daily dose 30 mg.
[5] abbreviates: chemotherapy control group, CTX 150/100 mg/kg ip, reference = 100%.

Read-outs that look alike come from different tables or passages of the source. Marks after values point to notes of the source that are not given here.

Regarding `C#C[C@@]1(OC(C)=O)C[C@@H]2CC[C@@H]3[C@H](CC[C@@]4(C)[C@H]3CC[C@]4(C#C)OC(C)=O)[C@@]2(C)C1` [ACP1, 2α,17α-diethynyl-A-decarbonized-5α-androstane-2β,17β-dihydroxyl diacetate compound], in series [1] (mouse, in vivo, 5 mg/kg), the “Day 8 (10^3 WBC/μl)” value is 4.21 ± 1.22 10^3 WBC/μl, the “Day 8 (%)” value turned out to be 1027%*, the “Day 12 (10^3 WBC/μl)” value is listed as 4.32 ± 1.29 10^3 WBC/μl and the “Day 12 (%)” value is on record as 292%*. Moreover, the “Effect of increasing WBC (C1/Czs)” value in series [2] (Day 8) is given as 146%. In addition, in series [2] (Day 8, compared with before treatment), the “extent of increasing white blood cells (Cl/Czs-100%)” value is given as “about 50%”. In series [2] (Day 15), the “Effect of increasing WBC (C1/Czs)” value is on record as 180% and the “average extent of increasing white blood cells” value is “about 80%”. Moreover, the “maximum extent of increasing white blood cells” value in series [2] (Day 15, maximum among subjects) is given as “about 178%”. In addition, in series [2] (Day 22), the “extent of increasing white blood cells” value was “about 63%” and the “Effect of increasing WBC (C1/Czs)” value was found to be 163%. Moreover, in series [2] (Day 28), the “Effect of increasing WBC (C1/Czs)” value was 149% and the “average extent of increasing white blood cells” value is “about 50%”. Besides, in series [2] (setting [3]), the “WBC count during administration, Day 8” value is on record as 5.8 10^9/L; the “WBC count during administration, Day 15” value is reported as 6.9 10^9/L; the “WBC count during administration, Day 22” value was 6.3 10^9/L; the “WBC count during administration, Day 28” value is reported as 7.0 10^9/L. For the same molecule, in series [2] (setting [4]), the “WBC count during administration, Day 8” value was 5.9 10^9/L; the “WBC count during administration, Day 15” value is reported as 7.5 10^9/L; the “WBC count during administration, Day 22” value is 6.0 10^9/L; the “WBC count during administration, Day 28” value is 6.1 10^9/L.

With `O=P1(N(CCCl)CCCl)NCCCO1` (centres unmarked) [CTX, cyclophosphamide], the “effect on white blood cells of peripheral blood in mice” value in series [1] (chemotherapy control group) is “caused a decrease of white blood cells of peripheral blood in mice”. Besides, the “Day 8 (10^3 WBC/μl)” value in series [1] (chemotherapy control group, CTX 150/100 mg/kg ip, 8th day after last CTX) was 0.41 ± 0.07 10^3 WBC/μl. Also, the “Day 12 (10^3 WBC/μl)” value in series [1] (chemotherapy control group, CTX 150/100 mg/kg ip, 12th day after last CTX) is listed as 1.48 ± 0.37 10^3 WBC/μl. In series [1] (setting [5]), the “Day 8 (%)” value was determined as 100% and the “Day 12 (%)” value is given as 100%.
